# Experimental data published in ChEMBL document CHEMBL1201862, “PubChem BioAssay data set” (2004).
#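 Five concentrations, 48 hours, 96-well plates. Here, GI50 denotes the concentration required for 50% inhibition of growth.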 Activity calls are given as the source filed them. Cut-off read from the data, not from the text of the source: active = GI50 up to about 1.1 µM and inactive = higher.
# Columns and labels:
# Experiment in all cases: DTP human tumour cell line panel, 48 h
# [1] = system: MDA-N
# [2] = system: U-251
# [3] = system: COLO 205
# [4] = system: MDA-MB-435
# [5] = system: K562
# [6] = system: NCI-H522
# [7] = system: NCI/ADR-RES
# [8] = system: SN12C
# [9] = system: SR
# [10] = system: CCRF-CEM
# [11] = system: OVCAR-3
# [12] = system: MDA-MB-231
# [13] = system: SK-MEL-28
# [14] = system: IGROV-1
# [15] = system: SK-OV-3
# [16] = system: HCT-15
# [17] = system: HL-60
# [18] = system: RPMI-8226
# [19] = system: HOP-62
# [20] = system: Hs-578T
structure (smiles),measurement,setting,value
N=C(N)c1ccc(C(NC(=O)CNS(=O)(=O)c2ccc3ccccc3c2)P(=O)(Oc2ccccc2)Oc2ccccc2)cc1 (stereo not given),GI50,[1],47.6 µM (inactive)
same,GI50,[2],39.4 µM (inactive)
same,GI50,[3],> 100 µM (inactive)
same,GI50,[4],35.6 µM (inactive)
same,GI50,[5],50 µM (inactive)
same,GI50,[6],41.2 µM (inactive)
same,GI50,[7],69.5 µM (inactive)
same,GI50,[8],27.7 µM (inactive)
same,GI50,[9],29.4 µM (inactive)
same,GI50,[10],29.8 µM (inactive)
same,GI50,[11],> 100 µM (inactive)
same,GI50,[12],41.2 µM (inactive)
same,GI50,[13],> 100 µM (inactive)
same,GI50,[14],31.8 µM (inactive)
same,GI50,[15],61.9 µM (inactive)
same,GI50,[16],48.5 µM
same,GI50,[17],14.2 µM (inactive)
same,GI50,[18],46.3 µM (inactive)
same,GI50,[19],51.9 µM (inactive)
same,GI50,[20],35.2 µM (inactive)
